# According to patent US5108900A, “Monoclonal antibodies to synthetic pyrethroids and method for detecting the same” (Regents of the University of California, priority 1989, dated 1992):
# Tests used:
# [1] = background; cited from earlier work
# monoclonal antibody Py-1 = assay: Competition ELISA (cELISA), monoclonal antibody Py-1, 3-pba-BSA coated plates; format: binding, mouse; details: for Average 50% inhibition values (I50), Py-1: Table I, averages from at least 12 assays; for Average 50% inhibition values (I50), Py-1 / I50 values observed for competitors (FIG. 4): Py-1
# Description: (§1) The binding specificities of antibodies to standards and assay samples were evaluated by competition ELISA assays. In a competition assay system, an antigen, which is a large molecule with protein or carbohydrate moieties which can precisely bind with steric interaction with the conformation of the antibodies is fixed to the reaction surface of a test plate, and antigen-specific antibody is added along with an aliquot of sample extract or standard test solution. The free-floating antibody partitions between the fixed antigen bound to the test reaction surface and the antigen of the added sample or standard which is free-floating in the solution. After a reaction period, the free-floating antigen-antibody complex is washed away. The plate is rewashed and incubated with an enzyme-tagged indicator molecule which will immunospecifically bind to proteins of the animal species which was the source of the pyrethroid-specific antibodies. Substrate and buffer are provided for the reaction of the enzyme-tagged indicator molecule. The optical signal from the enzyme substrate reaction indicates the amount of pyrethroid-specific antibody which remains bound to the immobilized antigen on the reaction plate. The utility of such a reaction system is dependent on the surface binding of the antigenic hapten-protein complex. The sensitivity of such a binding system can be amplified by coupling the enzyme reaction endpoint to a biotin-avidin complex. Optimal enzyme sensitivity occurs when a minimal amount of coating antigen (3-pba-BSA) is used.
# (§2) A competition enzyme-linked immunosorbent assay (c-ELISA) was developed to quantify permethrin standards in solution and to assess the specificity of the antibodies for various natural and synthetic pyrethroids. […] The 3-pba conjugate could be prepared by using EDC (1-ethyl-3-(3-dimethylaminopropyl)carbodiimide) as a cross-linking agent. The 3-pba conjugate was used as the coating agent for all subsequent experiments. Microtiter plates were coated with 0.5 μg/well 3-pba-BSA and blocked with ovalbumin.
# (§3) In the competition ELISA, the competitors were dissolved in acetonitrile and were added to phosphate-buffered saline(PBS)-Tween buffer such that the resulting solution was 6% acetonitrile. Competitor was added so that each well contained 100 μl of competitor in a 6% acetonitrile-PBS solution. An equal volume of PBS containing monoclonal antibody was added such that there was a final concentration assay buffer containing antibody and competitor. These antibodies can tolerate up to 5% acetonitrile without loss of activity. The plates were incubated for one hour at 37° C. and the endpoint assessed by observation of the color change of p-nitrophenyl phosphate substrate actuated by alkaline phosphatase conjugated to goat anti-mouse antibody.
# (§4) Because the sensitivity of c-ELISA's can be influenced by both the amount of specific anti-hapten antibody used and the amount of immobilized antigen, both of these parameters were optimized. In the preferred method, the amount of antigen used to coat the microtiter plates was varied from 10-0.5 μg/well, with 0.5 μg/well being more preferred. The method of application of the antigen to the plate was important to the assay. Antigen could be absorbed onto the wells overnight at 4° C. or antigen could be allowed to evaporate from the antigen solution onto the wells at 37° C. Using Py-1 antibody and permethrin as competitor, maximal sensitivity was observed when the antigen was allowed to evaporate onto the wells. In the preferred method microliter plates were prepared by evaporation of 100 μl of a 5 μg/mL solution of coating antigen (3-pba-BSA) at 37° C..
# The antibody Py-1 was titrated against immobilized antigen (0.5 μg […]/well) in a direct binding ELISA. At a Py-1 antibody concentration of 0.02 μg/well, the level used in subsequent cELISA's, 40% of the plateau activity was reached. […]
# [2] = cited from earlier work; for oncogenicity listing by U.S. Environmental Protection Agency: Regulating Pesticides in Food: The Delaney Paradox, 1987; for mammalian toxicity: background
# monoclonal antibody Py-4 = assay: Competition ELISA (cELISA), monoclonal antibody Py-4, 3-pba-BSA coated plates; format: binding, mouse; details: for Average 50% inhibition values (I50), Py-4: Table I, averages from at least 12 assays
# Description: as §1, §2, §3
# as §4, with “C.. […]” for “C..”
# (§5) The competition ELISA data was normalized using 100% activity as the optical density in wells in which antibody bound to the solid phase antigen (3-pba-BSA) in the absence of any competitor. The test wells, each containing different amounts of competitor, were normalized to the 100% activity wells. […]
# [3] = test system: Antibodies selected for their binding to the analog hapten of permethrin; assay: Antibody response to hapten and related pyrethroids; design: species or system mouse
# Description: Synthetic pyrethroids are small organic molecules, and in an effort to render such a molecule immunogenic, it was necessary to conjugate such molecules to carrier protein. Various modifications of synthetic pyrethroids can be made to achieve this purpose.
# monoclonal antibody Py-3 = assay: Competition ELISA (cELISA), monoclonal antibody Py-3, 3-pba-BSA coated plates; format: binding, mouse; details: for Average 50% inhibition values (I50), Py-3: Table I, averages from at least 12 assays
# Description: as §1, §2, §3
# as §4, with “C.. […]” for “C..”
# as §5
Compound,"Average 50% inhibition values (I50), Py-1 (monoclonal antibody Py-1) [nanograms]","Average 50% inhibition values (I50), Py-4 (monoclonal antibody Py-4) [nanograms]","Average 50% inhibition values (I50), Py-3 (monoclonal antibody Py-3) [nanograms]",I50 values observed for competitors (FIG. 4) (monoclonal antibody Py-1) [ng/well],further results
C=CCC1=C(C)C(OC(=O)[C@@H]2[C@@H](C=C(C)C)C2(C)C)CC1=O (stereo partly shown) [bioallethrin],–,–,–,–,stability in the air and water [1]: unstable character
O=Cc1cccc(Oc2ccccc2)c1 [3-Phenoxybenzaldehyde],22,–,–,–,–
"CC1(C)C(C=C(Cl)Cl)C1C(=O)OCc1cccc(Oc2ccccc2)c1 (mixture of isomers) [Permethrin, 3-phenoxybenzyl (lRS),cis,trans-3(2,2-dichlorovinyl)-2,2-dimethylcyclopropanecarboxylate]",–,12,1.7,1.7,"oncogenicity listing by U.S. Environmental Protection Agency [2]: potentially oncogenic; mammalian toxicity [2]: low mammalian toxicity; concentration which caused a 50% inhibition (I50) of antibody activity, Py-4 (monoclonal antibody Py-4; FIG. 3, in words): low nanogram range; 50% inhibition value, Py-4 (monoclonal antibody Py-4; Table 1, ng of competitor): 12 ng; responsiveness of antibodies [3]: similarly responsive; stability [1]: more stable; concentration which caused a 50% inhibition (I50) of antibody activity, Py-3 (monoclonal antibody Py-3; FIG. 3, in words): low nanogram range; 50% inhibition value, Py-3 (monoclonal antibody Py-3; Table 1, ng of competitor): 1.7 ng; concentration which caused a 50% inhibition (I50) of antibody activity, Py-1 (monoclonal antibody Py-1; FIG. 3, in words): low nanogram range; 50% inhibition value, Py-1 (monoclonal antibody Py-1; Table 1, ng of competitor): 1.5 ng; Average 50% inhibition values (I50), Py-1 (monoclonal antibody Py-1; listed as Permethrin (mixed isomers)): 1.5 nanograms"
"CC(C)[C@H](C(=O)OC(C#N)c1cccc(Oc2ccccc2)c1)c1ccc(OC(F)F)cc1 (stereo partly drawn) [Flucythranate, cyano(3-phenoxyphenyl)methyl(S)-4-(difluoromethoxy)-alpha-(1-methylethyl) benzeneacetate]",120,275,45,–,–
"CC1(C)C(C=C(Cl)Cl)C1C(=O)OC(C#N)c1cccc(Oc2ccccc2)c1 (mixture of isomers) [Cypermethrin, alpha-cyano-3-phenoxybenzyl cis, trans-3-(2,2-dichlorovinyl)-2,2-dimethylcyclopropanecarboxylate]",30,22,20,30,oncogenicity listing by U.S. Environmental Protection Agency [2]: potentially oncogenic; mammalian toxicity [2]: low mammalian toxicity; stability [1]: more stable
CC1(C)C(C=C(Cl)Cl)C1C(=O)OCc1cccc(Oc2ccccc2)c1 [Permethrin (trans isomers)],1.7,–,–,–,–
CC(C)=CC1C(C(=O)O)C1(C)C (stereo not shown) [Chrysanthemic acid],> 600,–,–,–,–
"CC(C)C(C(=O)OC(C#N)c1cccc(Oc2ccccc2)c1)c1ccc(Cl)cc1 (stereo not shown) [Fenvalerate, cyano(3-phenoxyphenyl)methyl 4-chloroalpha-(1-methylethyl)benzeneacetate]",350,4000,160,350,–
"CC(C)=CC1C(C(=O)OCN2C(=O)C3=C(CCCC3)C2=O)C1(C)C (mixture of isomers) [Tetramethrin, N-(3,4,5,6-tetrahydrophthalimino) methyl (dl)-cis,trans-chrysanthemate]",> 600,–,–,–,–
O=C(O)c1cccc(Oc2ccccc2)c1 [3-Phenoxybenzoic acid],200,330,140,–,–
"CC1(C)[C@H](C(=O)O[C@H](C#N)c2cccc(Oc3ccccc3)c2)[C@@H]1C=C(Br)Br (racemic) [Deltamethrin, -/+alpha-cyano-3-phenoxybenzyl-(+/-)-cis,trans-3-(2,2-dibromovinyl)-2,2-dimethylcyclopropanecarboxylate]",15,10,10,15,mammalian toxicity [2]: low mammalian toxicity; stability [1]: more stable
C=CCC1=C(C)C(OC(=O)C2C(C=C(C)C)C2(C)C)CC1=O (stereo not shown) [allethrin],–,–,–,–,stability in the air and water [1]: unstable character
CC1(C)C(C(=O)O)C1C(=O)OCc1cccc(Oc2ccccc2)c1 (stereo not shown) [Hapten],2,0.6,0.3,–,responsiveness of antibodies [3]: similarly responsive
"CC(C)=CC1C(C(=O)OCc2cccc(Oc3ccccc3)c2)C1(C)C (mixture of isomers) [Phenothrin, 3-phenoxybenzyl(lRS)cis,transchrysanthemate]",1.5,6,0.5,1.5,responsiveness of antibodies [3]: similarly responsive
"CC1(C)C(C(=O)OC(C#N)c2cccc(Oc3ccccc3)c2)C1(C)C (stereo not drawn) [Fenpropathrin, alpha-cyano-3-phenoxybenzyl-2,2,3,3-tetramethylcyclopropanecarboxylate]",17,25,10,–,–
